For series [1], the system named is relapsed or refractory mantle cell lymphoma. The note with it: international multi-center Phase II study; cited from earlier work.
The subject of the next series is nasopharyngeal cancer. Description: Clinical response of nasopharyngeal cancer patients given the compound of formula (III-A) IV twice weekly. Format: in vivo, human. As to conditions: for clinical response: IV injection days 1, 4, 8 and 11 of a 21-day cycle. Here is the method: (1) Tissue Microarray (obtained from US Biomax, Inc.) of primary nasopharyngeal cancer (n=35) (2) Tissue Microarray of metastatic nasopharyngeal cancer (obtained from US Biomax, Inc.) (n=15) (3) Tissue Microarray of other histologies of head and neck cancers (obtained from US Biomax, Inc.) (n=68) (4) Archival primary tumor biopsy samples of patients with head and neck squamous cell cancers (n=14). All samples were obtained under the appropriate informed consent. The patients were administered the compound of formula (III-A) on a twice-weekly schedule (days 1, 4, 8 and 11 of a 21-day cycle) as an IV injection. Of the primary tumor samples in (4), there were three patients with nasopharyngeal cancer.

Series [2] has as its system hematological and solid tumor xenograft models. As to conditions: range of hematological and solid tumor xenograft models; cited from earlier work.
For series [3] the following is noted: on exposure to aqueous solution or plasma; cited from earlier work.

With `CC(C)C[C@H](NC(=O)[C@H](Cc1ccccc1)NC(=O)c1cnccn1)B(O)O` [bortezomib, N-2-pyrazinecarbonyl-L-phenylalanine-L-leucineboronic acid], in series [1], the activity in patients entry was “confirming the activity”.
With `CC(C)C[C@H](NC(=O)CNC(=O)c1cc(Cl)ccc1Cl)B1OC(=O)C(CC(=O)O)(CC(=O)O)O1` [formula (III-A), 2,2′-{2-[(1R)-1-({[(2,5-dichlorobenzoyl)amino]acetyl}amino)-3-methylbutyl]-5-oxo-1,3,2-dioxaborolane-4,4-diyl}diacetic acid], the clinical response result is on record as “durable partial response” in the series on nasopharyngeal cancer (Patient 1, metastatic nasopharyngeal cancer of a squamous cell type, tumor NFκB p65 H-score 300); “disease progressed within 4 cycles” with nasopharyngeal cancer (Patient 2, nasopharyngeal cancer, tumor NFκB p65 H-score 200); “progressive disease” in the series with nasopharyngeal cancer (Patient 3, nasopharyngeal cancer, tumor NFκB p65 H-score 160). In addition, the Responder/Non-responder entry in the series on nasopharyngeal cancer (Patient 1, H-score 300) is reported as “Responder”; in the series with nasopharyngeal cancer (Patient 2, H-score 200), “Non-responder”; with nasopharyngeal cancer (Patient 3, H-score 160), “Non-responder”. The anti-tumor activity result in series [2] is recorded as “demonstrated anti-tumor activity”. In series [3], the “hydrolysis to the active form MLN2238” value is given as “rapidly hydrolyzes”.
